Assay results reported in patent US5786348A, “Methods for preparation and use of 1α,24(S)-dihydroxy vitamin D2” (priority 1995, dated 1998).

How the values were obtained:
[1] = target: T1, vitamin D serum binding protein (DBP) (Rattus norvegicus, UniProt P04276); assay: Binding to vitamin D serum binding protein in vitamin D deficient rat serum
T1 sequence (P04276 17-476): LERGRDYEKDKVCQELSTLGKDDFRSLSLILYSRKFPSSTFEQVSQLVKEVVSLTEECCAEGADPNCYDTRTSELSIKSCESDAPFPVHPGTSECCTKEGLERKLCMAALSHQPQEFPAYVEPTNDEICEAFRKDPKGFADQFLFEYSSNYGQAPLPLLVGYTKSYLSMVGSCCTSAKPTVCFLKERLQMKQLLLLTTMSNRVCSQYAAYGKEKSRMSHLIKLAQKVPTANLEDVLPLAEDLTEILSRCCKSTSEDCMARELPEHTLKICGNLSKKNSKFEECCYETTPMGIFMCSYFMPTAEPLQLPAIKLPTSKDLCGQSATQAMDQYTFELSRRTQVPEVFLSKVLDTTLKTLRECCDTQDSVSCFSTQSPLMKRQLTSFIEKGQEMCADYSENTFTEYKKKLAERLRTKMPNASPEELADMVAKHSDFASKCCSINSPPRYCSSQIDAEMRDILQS
Text: In addition, the weak binding by the DBP was indicative of more rapid clearance, allowing for low toxicity.

[2] = Dose ranging study in postmenopausal osteoporotic women; type: in vivo, human; conditions: oral 0.5 to 8.0 μg/day, rising weekly over five weeks
Experimental: Twenty postmenopausal osteoporotic women are enrolled in an open label study.
On admission to the study, all patients receive instruction on selecting a daily diet containing 400 to 600 mg of calcium. Compliance to this diet is verified at weekly intervals by 24-hour food records and by interviews with each patient.
All patients complete a one-week baseline period, a five-week treatment period, and a one-week post-treatment observation period. During the treatment period, patients orally self-administer 1α,24(S)-dihydroxyvitamin D2 at an initial dose of 0.5 μg/day for the first week, and at successively higher doses of 1.0, 2.0, 4.0, and 8.0 μg/day in each of the following four weeks. All doses are administered before breakfast.
Blood and urine chemistries are monitored on a weekly basis throughout the study. Key blood chemistries include fasting serum levels of calcium, phosphorus, osteocalcin, creatinine, and blood urea nitrogen. Key urine chemistries include 24-hour excretion of calcium, phosphorus, and creatinine.

[3] = Prophylaxis of postmenopausal bone loss in healthy postmenopausal women; type: in vivo, human
Experimental: A clinical study is conducted with healthy postmenopausal women having ages between 55 and 60 years. The study involves up to 80 patients randomly divided into two treatment groups, and continues for 24 to 36 months. One treatment group receives a constant dosage of 1α,24(S)-dihydroxy vitamin D2 (u.i.d.; a dose level at or above 1.0 μg/day) and the other receives a matching placebo. The study is conducted as indicated in Example 12 above.

[4] = Dermatological testing: topical ointment in dermatitis patients; type: in vivo, human; conditions: ointment 10 μg per gram, twice daily, four to six weeks
Experimental: Compositions containing 1α,24(S)-dihydroxy vitamin D2 are evaluated for therapeutic efficacy of the composition in the topical treatment of dermatitis (contact and ectopic). The composition evaluated is an ointment containing 10 μg of 1α,24-dihydroxy vitamin D2 per gram of ointment in a petrolatum-almond oil base. […] The patients are treated in an out-patient clinic. They are instructed to use the preparation two times a day.
The ointment is as far as possible applied to a single lesion, or to an area of the disease. The ointment and its container are weighed before the treatment starts and returned with any unused contents for reweighing at the end of the treatment.
The area of the lesion treated is estimated and recorded, and the lesion is photographed as required, together with suitable "control" lesions. The latter are preferably lesions of similar size and stage of development, either in the vicinity of the treated lesion or symmetrically contralateral. Relevant details of the photographic procedure are recorded so as to be reproduced when the lesions are next photographed (distance, aperture, angle, background, etc.). The ointment is applied twice daily and preferably left uncovered. The "control" lesions are left untreated, but if this is not possible, the treatment used on them is noted. […]

Human keratinocytes = assay: Epidermal cell differentiation and proliferation testing; type: cell-based; conditions: 0.05 to 5 μg/ml; against ethanol control cultures
Experimental: Human keratinocytes are cultured according to known modifications of the system originally described by Rheinwald and Green (Cell, vol. 6, p. 331 (1975)). The 1α,24(S)-dihydroxy vitamin D2, dissolved in ethanol, is added to cells to yield a variety of concentrations between 0.05 and 5 μg/ml with the ethanol concentration not to exceed 0.5% v/v. Control cultures are supplemented with ethanol at a final concentration of 0.5% v/v.
Differentiation and proliferation of epidermal cells in culture is examined by:
1. quantitation of cornified envelopes;
2. quantitation of cell density of cells attached to disks;
3. monitoring transglutaminase activity; or
4. monitoring DNA synthesis by incorporation of ^3 H-thymidine.

**Q.** Which results are given for `C=C1/C(=C\C=C2/CCC[C@]3(C)[C@@H]([C@H](C)/C=C/[C@@](C)(O)C(C)C)CC[C@@H]23)C[C@@H](O)C[C@@H]1O` [1α,24(S)-(OH)2 D2, 1α,24(S)-dihydroxy vitamin D2]?
**A.** Binding to the vitamin D serum binding protein relative to 1,25-(OH)2 D3 ([1]; compared with 1,25-(OH)2 D3): more weakly; Binding affinity for the vitamin D serum binding protein ([1]; in words): relatively poor binding affinity; 24-hour urinary calcium levels [2]: modest increases; Routinely monitored serum parameters [2]: no effect; Serum osteocalcin levels [2]: increases; Losses in total body calcium, radial or spinal bone densities relative to baseline ([3]; at or above 1.0 μg/day, 24 to 36 months): reduced losses; Monitored safety parameters ([3]; long-term administration at or above 1.0 μg/day): confirm the safety; Incidence of hypercalcemia [4]: insignificant incidence; Lesion severity scores (erythema, scaling, thickness; 0 to 3) ([4]; against control lesions): lower scores than the control lesions; Cell density of attached cells (Human keratinocytes): fewer attached cells; Cornified envelopes (Human keratinocytes): more cornified envelopes; DNA synthesis (3H-thymidine incorporation) (Human keratinocytes): lower DNA synthesis; Transglutaminase activity (Human keratinocytes): higher transglutaminase activity
